These results are taken from PubChem BioAssay (NCI).

Some test systems named below: SF-295 CNS; SNB-75 CNS; IGROV1 ovarian; NCI-H226 lung; SF-268 CNS; TK-10 renal; U251 CNS; SNB-19 CNS; SK-MEL-2 melanoma; A498 renal.
Common to all, as to experiment: NCI-60 cell line screen, 48 h

“And” between values parts separate entries of the source, which are not always exact repeats. Equal values may be shown once.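 96-well plates; 48 h exposure; 5 concentrations. Endpoints by linear interpolation between flanking doses. Not reached: highest tested concentration assigned. Here, GI50 denotes the concentration required for 50% inhibition of growth. TGI: concentration producing complete growth inhibition.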

Take `O=C(N/N=C(/CCN1CCCC1)CC(c1ccccc1)c1c(O)c2ccccc2oc1=O)c1ccncc1` (stereo unspecified): the TGI in the experiment on SF-295 CNS, in the experiment with SNB-75 CNS, in the experiment on IGROV1 ovarian, with NCI-H226 lung, in the experiment on SF-268 CNS and in the experiment with TK-10 renal was more than 100 µM each time. Also, the TGI with U251 CNS, with SNB-19 CNS, with SK-MEL-2 melanoma and in the experiment on A498 renal was more than 100 µM each time.

For the compound `CS(=O)(=O)CSCSSCS(C)(=O)=O`, the TGI in the experiment on SF-295 CNS is 55.7 µM; in the experiment on SNB-75 CNS, more than 100 µM; in the experiment on IGROV1 ovarian it was more than 100 µM; with NCI-H226 lung it was more than 100 µM; with SF-268 CNS it was 77.5 µM; in the experiment with TK-10 renal, more than 100 µM. The TGI is more than 100 µM with U251 CNS, more than 100 µM in the experiment on SNB-19 CNS, 46.7 µM in the experiment with SK-MEL-2 melanoma and more than 100 µM in the experiment with A498 renal.

Consider `CCOC(=O)/C=C/C1=C(c2cccs2)c2ccccc2CC1`, for which the GI50 in the experiment with SF-295 CNS was 38.5 µM; in the experiment with SNB-75 CNS, 25.5 µM; with IGROV1 ovarian, 26.7 µM; with NCI-H226 lung, 25.4 µM; with SF-268 CNS it was 30.2 µM; in the experiment on TK-10 renal it was 17.9 µM. Further, the GI50 with U251 CNS was 19.7 µM; in the experiment on SNB-19 CNS it was 30.9 µM; with SK-MEL-2 melanoma, 35900 nM; with A498 renal, 36.9 µM. In addition, the TGI in the experiment on SF-295 CNS is more than 100 µM; in the experiment on SNB-75 CNS, 82.5 µM; in the experiment on IGROV1 ovarian it was 94.9 µM; in the experiment on NCI-H226 lung it was 70.2 µM; in the experiment with SF-268 CNS, more than 100 µM; in the experiment on TK-10 renal it was 64.3 µM. The TGI in the experiment with U251 CNS is 39.6 µM; in the experiment with SNB-19 CNS, more than 100 µM; in the experiment with SK-MEL-2 melanoma, more than 100 µM; in the experiment on A498 renal, more than 100 µM.

As to `CCn1c(-c2nonc2N)nc2c(C#CC(C)(C)O)nc(OCCNC)cc21`, the GI50 in the experiment with SF-295 CNS was 6.66 µM; in the experiment on SNB-75 CNS, 7.78 µM; in the experiment with IGROV1 ovarian, 8.13 µM; in the experiment on NCI-H226 lung, 8.09 µM; in the experiment with SF-268 CNS it was 7.94 µM; in the experiment on TK-10 renal, 6.35 µM. Further, the GI50 in the experiment on U251 CNS was 6.5 µM; with SNB-19 CNS, 8.4 µM; with SK-MEL-2 melanoma, 6640 nM; in the experiment with A498 renal, 1.35 µM. Further, the TGI in the experiment with SF-295 CNS was more than 22.6 µM; with SNB-75 CNS, more than 25 µM; in the experiment with IGROV1 ovarian, more than 25 µM; in the experiment with NCI-H226 lung it was more than 23.1 µM; with SF-268 CNS, more than 25 µM; in the experiment on TK-10 renal, 20.4 µM. Moreover, the TGI with U251 CNS was more than 25 µM; with SNB-19 CNS, more than 25 µM; with SK-MEL-2 melanoma, 15.4 µM; with A498 renal it was 9.43 µM.

Take `CC[PH+](CC)CC.O=COC1OC([S-])C(OC=O)C(OC=O)C1OC=O.[Au+]` (stereo unspecified): the GI50 was 1.8 µM in the experiment with SF-295 CNS; 0.374 µM in the experiment on SNB-75 CNS; 1.2 µM with IGROV1 ovarian; 1.96 µM with NCI-H226 lung; 1.17 µM in the experiment with SF-268 CNS; 1.74 µM in the experiment with TK-10 renal. The GI50 is 0.368 µM in the experiment with U251 CNS, 1.34 µM with SNB-19 CNS, 1470 nM in the experiment with SK-MEL-2 melanoma and 1.86 µM in the experiment with A498 renal. For the same compound, the TGI in the experiment with SF-295 CNS amounted to 3.24 µM; with SNB-75 CNS it was 1.77 µM; in the experiment with IGROV1 ovarian it was 2.62 µM; in the experiment with NCI-H226 lung, 4.23 µM; in the experiment on SF-268 CNS, 3.15 µM; in the experiment on TK-10 renal it was 3.39 µM. Further, the TGI with U251 CNS was determined as 1.47 µM; in the experiment with SNB-19 CNS, 2.61 µM; in the experiment with SK-MEL-2 melanoma it was 3.38 µM; in the experiment on A498 renal, 3.29 µM.

Take `Cc1cc2c(cc1Cl)SC1=NN(C)C(N(C)C)N1S2(=O)=O` (stereo unspecified): the GI50 is more than 100 µM in the experiment with SF-295 CNS; 86.4 µM in the experiment on SNB-75 CNS; more than 100 µM with IGROV1 ovarian; more than 100 µM in the experiment on NCI-H226 lung; more than 100 µM in the experiment with SF-268 CNS; more than 100 µM with TK-10 renal. Further, the GI50 was more than 100 µM in the experiment with U251 CNS, more than 100 µM with SNB-19 CNS, more than 100000 nM in the experiment on SK-MEL-2 melanoma and 63.4 µM with A498 renal. Further, the TGI in the experiment with SF-295 CNS, in the experiment on SNB-75 CNS, in the experiment on IGROV1 ovarian, in the experiment with NCI-H226 lung, in the experiment with SF-268 CNS and in the experiment with TK-10 renal was more than 100 µM in each case. The TGI with U251 CNS, in the experiment on SNB-19 CNS, in the experiment on SK-MEL-2 melanoma and in the experiment on A498 renal was more than 100 µM each time.

Take `Cc1[nH]nc(C(=O)n2nc(N)c3ccccc32)c1[N+](=O)[O-]`: the GI50 was more than 100 µM with SF-295 CNS; 26.9 µM in the experiment with SNB-75 CNS; 37.5 µM in the experiment on IGROV1 ovarian; more than 100 µM in the experiment on NCI-H226 lung; more than 100 µM in the experiment on SF-268 CNS; more than 100 µM with TK-10 renal. The GI50 in the experiment with U251 CNS is more than 57.2 µM; in the experiment with SNB-19 CNS it was more than 100 µM; in the experiment on SK-MEL-2 melanoma, more than 100000 nM; with A498 renal it was more than 100 µM. Besides, the TGI in the experiment on SF-295 CNS is more than 100 µM; in the experiment on SNB-75 CNS, more than 88.9 µM; in the experiment with IGROV1 ovarian, more than 100 µM; in the experiment with NCI-H226 lung, more than 100 µM; with SF-268 CNS, more than 100 µM; with TK-10 renal, more than 100 µM. Further, the TGI in the experiment on U251 CNS, in the experiment on SNB-19 CNS, in the experiment with SK-MEL-2 melanoma and in the experiment with A498 renal was more than 100 µM throughout.

`C[C@]12CCCC(=O)C1(O)C[C@H](C(=O)O)CC2` (stereo partly specified): the TGI with SF-295 CNS, with SNB-75 CNS, in the experiment with IGROV1 ovarian, in the experiment on NCI-H226 lung, with SF-268 CNS and in the experiment with TK-10 renal was more than 100 µM throughout. In addition, the TGI in the experiment on U251 CNS, in the experiment on SNB-19 CNS, in the experiment with SK-MEL-2 melanoma and in the experiment on A498 renal was more than 100 µM each time.

In the case of `Fc1cc2[nH]ncc2c2c3c(c(-c4cn[nH]c4C(F)(F)F)nc12)C1CCC3C1` (stereo unspecified), the GI50 in the experiment on SF-295 CNS is 1.21 µM; with SNB-75 CNS, 0.945 µM; in the experiment with IGROV1 ovarian, 0.994 µM; in the experiment on NCI-H226 lung, 0.926 µM; in the experiment on SF-268 CNS it was 1.16 µM; in the experiment on TK-10 renal it was 0.744 µM. In addition, the GI50 with U251 CNS is 1.4 µM; in the experiment on SNB-19 CNS it was 1.59 µM; in the experiment with SK-MEL-2 melanoma, 1570 nM; with A498 renal, 0.591 µM. For the same compound, the TGI amounted to 4.94 µM with SF-295 CNS; 2.93 µM with SNB-75 CNS; 3.77 µM with IGROV1 ovarian; 4.72 µM with NCI-H226 lung; 4.64 µM in the experiment on SF-268 CNS; 4.08 µM in the experiment on TK-10 renal. For the same compound, the TGI with U251 CNS turned out to be 5.09 µM; in the experiment on SNB-19 CNS it was 6.57 µM; in the experiment with SK-MEL-2 melanoma it was 4.2 µM; in the experiment on A498 renal, 1.25 µM.

Take `COc1ccc(N2C(=O)[C@H]3CC(C)c4c([nH]c5ccccc45)[C@H]3C2=O)cc1` (stereo partly specified): the TGI is 7.71 µM with SF-295 CNS; 12.5 µM with SNB-75 CNS; 85.9 µM in the experiment with IGROV1 ovarian; 38.3 µM with NCI-H226 lung; more than 76.2 µM in the experiment on SF-268 CNS; 52.7 µM in the experiment with TK-10 renal. For the same compound, the TGI with U251 CNS was 20.4 µM; in the experiment with SNB-19 CNS, more than 71.8 µM; in the experiment on SK-MEL-2 melanoma, 16.5 µM; in the experiment on A498 renal, 77.7 µM.

With `C/C=C1\NC(=O)[C@H]2CSSCCC=C[C@H](CC(=O)N[C@H](C(C)C)C(=O)N2)OC(=O)[C@H](C(C)C)NC1=O`, the GI50 was less than 0.01 µM in the experiment with SF-295 CNS; less than 0.0104 µM in the experiment on SNB-75 CNS; < 0.01 µM and 0.000421 µM in the experiment on IGROV1 ovarian; less than 0.01 µM in the experiment with NCI-H226 lung; less than 0.01 µM with SF-268 CNS; less than 0.01 µM with TK-10 renal. Moreover, the GI50 in the experiment on U251 CNS was < 0.01 µM and 0.000136 µM; with SNB-19 CNS, less than 0.01 µM; with SK-MEL-2 melanoma, < 10 nM and 0.0954 nM; in the experiment with A498 renal, less than 0.01 µM. The TGI was < 0.01 µM and 0.013 µM with SF-295 CNS; 0.268 µM and 0.0317 µM and < 0.0312 µM with NCI-H226 lung; 0.0206 µM and 0.0401 µM in the experiment on SF-268 CNS; < 0.01 µM and 0.00147 µM and < 0.0252 µM in the experiment on U251 CNS; 0.0301 µM and 0.0538 µM in the experiment on SNB-19 CNS; < 0.01 µM and 0.000402 µM with A498 renal.

For the compound `Cc1cc(C)c(C(=O)c2no[n+]([O-])c2C(=O)c2c(C)cc(C)c(Br)c2C)c(C)c1Br`, the TGI in the experiment with SF-295 CNS stood at 33.3 µM; in the experiment on SNB-75 CNS, 25.8 µM; in the experiment on IGROV1 ovarian it was 23.3 µM; with NCI-H226 lung, 31.6 µM; with SF-268 CNS it was 29.8 µM; in the experiment on TK-10 renal, 26.5 µM. For the same compound, the TGI with U251 CNS is 25 µM; in the experiment with SNB-19 CNS it was 29.1 µM; in the experiment with SK-MEL-2 melanoma it was 30.9 µM; in the experiment with A498 renal, 32.6 µM.

On to `CC[C@]1(O)C(=O)OCc2c1cc1n(c2=O)Cc2cc3c(N)cccc3nc2-1`, for which the TGI in the experiment with SF-295 CNS was more than 100 µM; with SNB-75 CNS, 99.1 µM; in the experiment with IGROV1 ovarian it was more than 100 µM; in the experiment with NCI-H226 lung, more than 100 µM; in the experiment with SF-268 CNS it was more than 100 µM; with TK-10 renal it was more than 100 µM. Also, the TGI in the experiment on U251 CNS, with SNB-19 CNS, in the experiment with SK-MEL-2 melanoma and in the experiment with A498 renal was more than 100 µM each time.

For the compound `CCOC(=O)c1s/c(=N\Nc2nc3ccccc3cc2C2OCCO2)n(Cc2ccccc2)c1C`, the TGI with SF-295 CNS, in the experiment with SNB-75 CNS, in the experiment on IGROV1 ovarian, in the experiment with NCI-H226 lung, in the experiment with SF-268 CNS and in the experiment with TK-10 renal was more than 100 µM each time. Moreover, the TGI with U251 CNS, in the experiment on SNB-19 CNS, in the experiment with SK-MEL-2 melanoma and in the experiment on A498 renal was more than 100 µM each time.
